Measurements taken from ChEMBL document CHEMBL3885861, “Open TG-GATES”.

Organism: Rattus norvegicus
Experiment: Open TG-GATES - Regimen: Single
Type: toxicity, organism-based, Sprague-Dawley
Parameters: regimen Single, gender Male, age 6 weeks
Settings: in vivo, po, 100 mg/kg, route gavage, dose level Low; for APTT / Bas / Eos / Fbg / Hb / Ht / Lym / MCH / MCHC / MCV / Mono / Neu / PT / Plat / RBC / Ret / WBC: tissue Blood; for KIDNEY_L / KIDNEY_R / KIDNEY_TOTAL: tissue Kidney; for LIVER: tissue Liver; for A/G / ALP / ALT / AST / BUN / CRE / Ca / Cl / DBIL / GLC / IP / K / LDH / Na / PL / RALB / TBIL / TC / TG / TP / gamma-GTP: tissue Plasma

O=C(N[C@H](CO)[C@H](O)c1ccc([N+](=O)[O-])cc1)C(Cl)Cl [CHLORAMPHENICOL]
TERMINAL_BW (3 h): 219.7 g
APTT (3 h): 16 s
Bas (3 h): 0%
Eos (3 h): 0.6%
Fbg (3 h): 268.8 mg/dL
Hb (3 h): 13.2 g/dL
Ht (3 h): 38.6%
Lym (3 h): 76.2%
MCH (3 h): 21.9 pg
MCHC (3 h): 34.3%
MCV (3 h): 63.8 fL
Mono (3 h): 3%
Neu (3 h): 19.2%
PT (3 h): 14.6 s
Plat (3 h): 115.2 x10_4/uL
RBC (3 h): 608.2 x10_4/ul
Ret (3 h): 8.1%
WBC (3 h): 83.6 x10_2/uL
KIDNEY_L (3 h): 0.9 g
KIDNEY_R (3 h): 0.9 g
KIDNEY_TOTAL (3 h): 1.9 g
LIVER (3 h): 9.6 g
A/G (3 h): 0.8
ALP (3 h): 1429.8 IU/L
ALT (3 h): 43 IU/L
AST (3 h): 74.2 IU/L
BUN (3 h): 10.2 mg/dL
CRE (3 h): 0.2 mg/dL
Ca (3 h): 11.5 mg/dL
Cl (3 h): 105 meq/L
DBIL (3 h): 0.014 mg/dL
GLC (3 h): 180.8 mg/dL
IP (3 h): 8.7 mg/dL
K (3 h): 4.2 meq/L
LDH (3 h): 58.6 IU/L
Na (3 h): 140.4 meq/L
PL (3 h): 136.6 mg/dL
RALB (3 h): 2.5 g/dL
TBIL (3 h): 0.06 mg/dL
TC (3 h): 78.4 mg/dL
TG (3 h): 58.4 mg/dL
TP (3 h): 5.4 g/dL
gamma-GTP (3 h): 1.2 IU/L
TERMINAL_BW (6 h): 219.6 g
APTT (6 h): 17.7 s
Bas (6 h): 0%
Eos (6 h): 0.8%
Fbg (6 h): 283.6 mg/dL
Hb (6 h): 13.4 g/dL
Ht (6 h): 42.9%
Lym (6 h): 78.2%
MCH (6 h): 21.3 pg
MCHC (6 h): 31.1%
MCV (6 h): 68.5 fL
Mono (6 h): 2.2%
Neu (6 h): 18.2%
PT (6 h): 14.7 s
Plat (6 h): 106.7 x10_4/uL
RBC (6 h): 627.6 x10_4/ul
Ret (6 h): 7.9%
WBC (6 h): 71.4 x10_2/uL
KIDNEY_L (6 h): 1 g
KIDNEY_R (6 h): 1 g
KIDNEY_TOTAL (6 h): 1.9 g
LIVER (6 h): 9.1 g
A/G (6 h): 0.9
ALP (6 h): 1362.6 IU/L
ALT (6 h): 39.2 IU/L
AST (6 h): 75.2 IU/L
BUN (6 h): 9 mg/dL
CRE (6 h): 0.2 mg/dL
Ca (6 h): 11.4 mg/dL
Cl (6 h): 105 meq/L
DBIL (6 h): 0.012 mg/dL
GLC (6 h): 176.8 mg/dL
IP (6 h): 9.6 mg/dL
K (6 h): 4.2 meq/L
LDH (6 h): 89.4 IU/L
Na (6 h): 141 meq/L
PL (6 h): 126.2 mg/dL
RALB (6 h): 2.5 g/dL
TBIL (6 h): 0.066 mg/dL
TC (6 h): 72.6 mg/dL
TG (6 h): 48.4 mg/dL
TP (6 h): 5.4 g/dL
gamma-GTP (6 h): 1.2 IU/L
TERMINAL_BW (9 h): 221.1 g
APTT (9 h): 16.6 s
Bas (9 h): 0%
Eos (9 h): 1%
Fbg (9 h): 281.8 mg/dL
Hb (9 h): 13.3 g/dL
Ht (9 h): 42.4%
Lym (9 h): 78.6%
MCH (9 h): 21.2 pg
MCHC (9 h): 31.3%
MCV (9 h): 67.8 fL
Mono (9 h): 2%
Neu (9 h): 17.6%
PT (9 h): 14.8 s
Plat (9 h): 115.3 x10_4/uL
RBC (9 h): 626.6 x10_4/ul
Ret (9 h): 7.9%
WBC (9 h): 61.1 x10_2/uL
KIDNEY_L (9 h): 0.9 g
KIDNEY_R (9 h): 0.9 g
KIDNEY_TOTAL (9 h): 1.9 g
LIVER (9 h): 9 g
A/G (9 h): 0.9
ALP (9 h): 1589.8 IU/L
ALT (9 h): 38.8 IU/L
AST (9 h): 67.2 IU/L
BUN (9 h): 9 mg/dL
CRE (9 h): 0.2 mg/dL
Ca (9 h): 11.4 mg/dL
Cl (9 h): 105.2 meq/L
DBIL (9 h): 0.014 mg/dL
GLC (9 h): 181 mg/dL
IP (9 h): 10 mg/dL
K (9 h): 4.2 meq/L
LDH (9 h): 61.4 IU/L
Na (9 h): 140.8 meq/L
PL (9 h): 145.6 mg/dL
RALB (9 h): 2.6 g/dL
TBIL (9 h): 0.072 mg/dL
TC (9 h): 83.2 mg/dL
TG (9 h): 47.4 mg/dL
TP (9 h): 5.5 g/dL
gamma-GTP (9 h): 1 IU/L
TERMINAL_BW (24 h): 224.4 g
APTT (24 h): 16.8 s
Bas (24 h): 0%
Eos (24 h): 1%
Fbg (24 h): 264.4 mg/dL
Hb (24 h): 13.3 g/dL
Ht (24 h): 41.6%
Lym (24 h): 79.8%
MCH (24 h): 21.4 pg
MCHC (24 h): 32%
MCV (24 h): 66.7 fL
Mono (24 h): 3.6%
Neu (24 h): 15%
PT (24 h): 14.8 s
Plat (24 h): 123 x10_4/uL
RBC (24 h): 623.4 x10_4/ul
Ret (24 h): 7%
WBC (24 h): 81.1 x10_2/uL
KIDNEY_L (24 h): 1 g
KIDNEY_R (24 h): 1 g
KIDNEY_TOTAL (24 h): 1.9 g
LIVER (24 h): 9.4 g
A/G (24 h): 0.9
ALP (24 h): 1622.8 IU/L
ALT (24 h): 48.2 IU/L
AST (24 h): 80.4 IU/L
BUN (24 h): 15 mg/dL
CRE (24 h): 0.2 mg/dL
Ca (24 h): 11.4 mg/dL
Cl (24 h): 105.8 meq/L
DBIL (24 h): 0.012 mg/dL
GLC (24 h): 186.6 mg/dL
IP (24 h): 8.6 mg/dL
K (24 h): 4.1 meq/L
LDH (24 h): 61.4 IU/L
Na (24 h): 141.6 meq/L
PL (24 h): 133 mg/dL
RALB (24 h): 2.6 g/dL
TBIL (24 h): 0.058 mg/dL
TC (24 h): 76.8 mg/dL
TG (24 h): 53.6 mg/dL
TP (24 h): 5.6 g/dL
gamma-GTP (24 h): 1 IU/L
